Reference: US10314827B2, “Methods of use of cyclopamine analogs” (Infinity Pharmaceuticals, Inc., priority 2006, dated 2019)

Columns and labels:
Hedgehog pathway = experiment: C3H10T1/2 osteoblast differentiation assay (alkaline phosphatase readout); type: cell-based, Mouse; details: Mus musculus, C3H 10T1/2; C3H10T1/2 cells, sonic Hedgehog 250 ng/ml, AP activity normalized to total protein; read-out: Differentiation Assay EC50 (approximate EC50 for inhibition)
Text: Hedgehog pathway specific cancer cell killing effects may be ascertained using the following assay. C3H10T1/2 cells differentiate into osteoblasts when contacted with the sonic hedgehog peptide (Shh-N). Upon differentiation; these osteoblasts produce high levels of alkaline phosphatase (AP) which can be measured in an enzymatic assay (Nakamura et al., X BBRC (1997) 237:465). Compounds that block the differentiation of C3H10T1/2 into osteoblasts (a Shh dependent event) can therefore be identified by a reduction in AP production (van der Horst et al., Bone (2003) 33:899). The assay details are described below. The results approximate (EC50 for inhibition) of the differentiation assay is shown below in Table 1.
Mouse embryonic mesoderm fibroblasts C3H10T1/2 cells (obtained from ATCC) were cultured in Basal MEM Media (Gibco/Invitrogen) supplemented with 10% heat inactivated FBS (Hyclone), 50 units/ml penicillin and 50 ug/ml streptomycin (Gibco/Invitrogen) at 37° C. With 5% CO2 in air atmosphere.
C3H10T1/2 cells were plated in 96 wells with a density of 8×10^3 cells/well. Cells were grown to confluence (72 hrs). After sonic Hedgehog (250 ng/ml), and/or compound treatment, the cells were lysed in 110 μL of lysis buffer (50 mm Tris ph 7.4, 0.1% tritonx100), plates were sonicated and lysates spun through 0.2 μm PVDF plates (Corning). 40 μL of lysates was assayed for AP activity in alkaline buffer solution (Sigma) containing 1 mg/ml p-Nitrophenyl Phosphate. After incubating for 30 min at 37° C., the plates were read on an Envision plate reader at 405 nm. Total protein was quantified with a BCA protein assay kit from Pierce according to manufacturer's instructions. AP activity was normalized against total protein.

BXPC-3 cells = experiment: Pancreatic cancer model: subcutaneous BXPC-3 tumors in mice; type: in vivo, human; details: orally 40 mg/kg/day, 25 daily doses, p=0.0309
Experimental: (§1) The activity of Compound 42 was further tested in a human pancreatic model: BXPC-3 cells were implanted subcutaneously into the flanks of the right legs of mice. On day 42 post-tumor implant, the mice were randomized into two groups to receive either Vehicle (30% HPBCD) or Compound 42. Compound 42 administered orally at 40 mg/kg/day. […] At the end of the study, the tumors were harvested 4 hours post the last dose to evaluate an on target response by q-RT-PCR analysis of the HH pathway genes.

human Gli-1 = experiment: q-RT-PCR of HH pathway genes in harvested BXPC-3 tumors, human Gli-1; type: in vivo; details: tumors harvested 4 hours post last dose, 40 mg/kg/day orally
Experimental: as §1

murine Gli-1 = experiment: q-RT-PCR of HH pathway genes in harvested BXPC-3 tumors, murine Gli-1; type: in vivo; details: tumors harvested 4 hours post last dose, 40 mg/kg/day orally, vs vehicle group
Experimental: as §1

medulloblastoma = experiment: Medulloblastoma model: Ptch1/Hic1 subcutaneous allografts, tumor growth; type: in vivo, mouse
Experimental: (§2) The activity of Compound 42 was also evaluated in a transgenic mouse model of medulloblastoma. Mice that are heterozygous for loss of function mutations in the tumor suppressors Patched1 (Ptch1) and Hypermethylated in Cancer (Hic1) develop spontaneous medulloblastoma. […] When passaged as subcutaneous allografts, these tumors grow aggressively and are Hedgehog pathway-dependent. This model was employed to evaluate the efficacy of orally administered Compound, and to correlate activity with drug exposure in plasma and tumors.
The approximate effective daily oral dose for 50% inhibition of tumor growth (ED50) is 4 mg/kg.

Gli-1 = experiment: Medulloblastoma model: Gli-1 mRNA expression in subcutaneously implanted tumors; type: in vivo, mouse; details: single oral dose, 8 hours post dose
Experimental: as §2

LX22 cells = experiment: Lung cancer model: LX22 primary SCLC xenograft; type: in vivo, human
Text: To test the activity of Compound 42 in a human SCLC tumor model, LX22 cells were implanted subcutaneously into the flank of the right leg. LX22 is primary xenograft model of SCLC derived from chemo-naive patients, which has been maintained by mouse to mouse passaging. This tumor responds to etoposide/carboplatin chemotherapy in way that closely resembles a clinical setting. LX22 regresses during chemotherapy treatment, goes through a period of remission, and then begins to recur. In the LX22 model, Compound single agent activity and its ability to modulate the chemoresistant recurrence was tested. On day 32 post tumor implant, mice were randomized into three dosing groups to receive Vehicle (30% HBPCD), Compound, or the chemotherapy combination of etoposide and carboplatin (E/P). […] Etoposide was administered i.v at 12 mg/kg on days 34, 35, 36, and 48, while Carboplatin was administered i.v. At 60 mg/kg on days 34, 41, and 48, post tumor implant. On day 50, the E/P treated mice were further randomized to receive either Vehicle (30% HPBCD) or Compound follow up treatment.

Oral multi-dose MTD = details: mouse, in vivo, mice
NCI-H929 = experiment: Multiple myeloma colony growth in methylcellulose, NCI-H929; type: cell-based, human; details: NCI-H929, treated 96 hours, colonies quantified 10-21 days later
Experimental: (§3) The ability of Compound 42 to inhibit the growth of multiple myeloma cells (MM) in vitro was tested, using human multiple myeloma cells lines (NCI-H929 and KMS12) and primary clinical bone marrow specimens derived from patients with MM. The cells were treated for 96 hours with Compound, washed, then plated in methylcellulose. Tumor colonies were quantified 10-21 days later as an indicator of cell growth potential following treatment.

KMS12 = experiment: Multiple myeloma colony growth in methylcellulose, KMS12; type: cell-based, human; details: KMS12, treated 96 hours, colonies quantified 10-21 days later
Experimental: as §3

[1] = test system: primary clinical bone marrow specimens derived from patients with MM; experiment: Multiple myeloma colony growth in methylcellulose, primary clinical specimens; type: cell-based, human; details: primary clinical MM samples, treated 96 hours, colonies quantified 10-21 days later
Experimental: as §3

U937 = experiment: AML colony formation in methylcellulose, U937; type: cell-based, human; details: 1.0 um, 72 hours
Experimental: (§4) The ability of Compound 42 to inhibit the in vitro growth of human cell lines derived from patients with acute myeloid leukemia (AML, cell line U937) and myelodysplastic syndrome (MDS, cell line KG1 and KG1a) was studied. Each of the cell lines was treated for 72 hours with Compound 42 (1.0 um) followed by plating in methylcellulose.

KG1 = experiment: MDS colony formation in methylcellulose, KG1; type: cell-based, human; details: 1.0 um, 72 hours
Experimental: as §4

KG1a = experiment: MDS colony formation in methylcellulose, KG1a; type: cell-based, human; details: 1.0 um, 72 hours
Experimental: as §4

L428 = experiment: Hodgkin's disease colony formation in methylcellulose, L428; type: cell-based, human; details: L428 (HD), 1.0 um, 72 hours
Experimental: (§5) The ability of Compound 42 to inhibit the in vitro growth of human cell lines derived from patients with non-Hodgkin's lymphoma (cell lines RL and Jeko-1) and Hodgkin's disease (cell line L428) was studied. Each of the cell lines was treated for 72 hours with Compound 42 (1.0 um) followed by plating in methylcellulose.

RL = experiment: NHL colony formation in methylcellulose, RL; type: cell-based, human; details: 1.0 um, 72 hours
Experimental: as §5

Jeko-1 = experiment: NHL colony formation in methylcellulose, Jeko-1; type: cell-based, human; details: Jeko-1 (NHL), 1.0 um, 72 hours
Experimental: as §5

[2] = test system: Gli-responsive luciferase reporter; experiment: Gli-responsive luciferase reporter transient transfection assay, REH; type: cell-based; details: 1 um, vehicle alone 6.73
Text: (§6) The activity of Compound 42 (1 um) against three pre-B cell acute lymphocytic leukemia cell lines (REH, RS4-11, and Nalm-6) was studied, using a transient transfection assay in which a Gli-responsive luciferase reporter was transiently transfected into cells. Treatment with Compound 42 repressed luciferase activity compared to a vehicle treated control (Table 4).

[3] = test system: Gli-responsive luciferase reporter; experiment: Gli-responsive luciferase reporter transient transfection assay, RS4-11; type: cell-based; details: RS4-11, 1 um; vehicle alone 12.97
Text: as §6

[4] = test system: Gli-responsive luciferase reporter; experiment: Gli-responsive luciferase reporter transient transfection assay, Nalm-6; type: cell-based; details: Nalm-6, 1 um; vehicle alone 8.42
Text: as §6

REH = experiment: ALL colony formation in methylcellulose, REH; type: cell-based; details: treated 72 hours
Experimental: (§7) The effect of Compound 42 on the growth of two of these cell lines, treated in vitro for 72 hours, was also studied. Following treatment, cells were washed and plated in methylcellulose.

RS4-11 = experiment: ALL colony formation in methylcellulose, RS4-11; type: cell-based; details: RS4-11, treated 72 hours
Experimental: as §7

Structure (SMILES): CC(=O)NCCN1C[C@@H](C)C[C@H]2O[C@]3(CC[C@@H]4C(=C(C)C3)C[C@H]3[C@H]4CC[C@@H]4CC(=O)CC[C@@]43C)[C@H](C)[C@@H]21 [Compound 21]
- EC50 (Hedgehog pathway): 20 to 100 nM

Structure (SMILES): CC(=O)N(C)CCN1C[C@@H](C)C[C@H]2O[C@]3(CC[C@@H]4C(=C(C)C3)C[C@H]3[C@H]4CC[C@@H]4CC(=O)CC[C@@]43C)[C@H](C)[C@@H]21 [Compound 22]
- EC50 (Hedgehog pathway): < 20 nM

Structure (SMILES): CC1=C2C[C@H]3[C@@H](CC[C@@H]4CC(=O)CC[C@@]43C)[C@@H]2CC[C@@]2(C1)O[C@@H]1C[C@H](C)CN(CCNC(=O)CCc3ccccc3)[C@H]1[C@H]2C [Compound 23]
- EC50 (Hedgehog pathway): < 20 nM

Structure (SMILES): CC1=C2C[C@H]3[C@@H](CC[C@@H]4CC(=O)CC[C@@]43C)[C@@H]2CC[C@@]2(C1)O[C@@H]1C[C@H](C)CN(CCN(C)C(=O)CCc3ccccc3)[C@H]1[C@H]2C [Compound 24]
- EC50 (Hedgehog pathway): < 20 nM

Structure (SMILES): CC(=O)O[C@H]1CC[C@@]2(C)[C@H](CC[C@H]3[C@@H]4CC[C@@]5(CC(C)=C4C[C@@H]32)O[C@@H]2C[C@H](C)CN[C@H]2[C@H]5C)C1 [Compound 35]
- EC50 (Hedgehog pathway): < 20 nM

Structure (SMILES): CC1=C2C[C@H]3[C@@H](CC[C@@H]4C[C@H](NS(C)(=O)=O)CC[C@@]43C)[C@@H]2CC[C@@]2(C1)O[C@@H]1C[C@H](C)CN[C@H]1[C@H]2C [Compound 42]
- EC50 (Hedgehog pathway): < 20 nM
- reduction of tumor volume growth compared to vehicle control (BXPC-3 cells): 40%
- human Gli-1 modulation (q-RT-PCR) (human Gli-1): no modulation
- murine Gli-1 mRNA levels (q-RT-PCR) (murine Gli-1): robust down-regulation
- ED50 (medulloblastoma; Mus musculus, daily oral dosing, approximate, read-out: effective daily oral dose for 50% inhibition of tumor growth (ED50)): ~4 mg/kg
- inhibition of tumor growth (medulloblastoma; daily (QD) PO administration): dose dependent inhibition of tumor growth, with frank tumor regression seen at higher doses
- long term survival following cessation of treatment (medulloblastoma; treated QD for 21 days): > 60 days
- tumor re-growth following cessation of treatment (medulloblastoma; treated QD for 21 days): little to no tumor re-growth
- HH pathway down-regulation measured by Gli-1 mRNA expression (Gli-1): dose-dependent down-regulation
- tumor recurrence after etoposide/carboplatin (E/P), treated vs vehicle group (LX22 cells; follow up treatment from day 50, 40 mg/kg/day orally, 35 consecutive doses, p=0.0101): substantial delay in tumor recurrence
- single agent activity, treated vs vehicle groups (LX22 cells; orally 40 mg/kg/day, 16 consecutive doses): no measurable difference
- MTD (Oral multi-dose MTD): 40 mg/kg/day
- growth of cells relative to untreated control (100%) (NCI-H929): less than 25%
- growth of cells relative to untreated control (100%) (KMS12): less than 25%
- growth of cells relative to untreated control (100%) [1]: less than 25%
- % colony formation with Compound 42 (relative to vehicle control) (U937): 43.4%
- % colony formation with Compound 42 (relative to vehicle control) (KG1): 25.1%
- % colony formation with Compound 42 (relative to vehicle control) (KG1a): 34.6%
- % colony formation with Compound 42 (relative to vehicle control) (L428): 21.4%
- % colony formation with Compound 42 (relative to vehicle control) (RL): 14.3%
- % colony formation with Compound 42 (relative to vehicle control) (Jeko-1): 27.4%
- Relative luc activity (+Compound) [2]: 1.12
- Relative luc activity (+Compound) [3]: 1.31
- Relative luc activity (+Compound) [4]: 1.44
- colony formation with Compound (relative to vehicle control) - 1° plating (REH): 63
- colony formation with Compound (relative to vehicle control) - 2° plating (REH; replating of colonies): 9
- colony formation with Compound (relative to vehicle control) - 1° plating (RS4-11): 71
- colony formation with Compound (relative to vehicle control) - 2° plating (RS4-11; replating of colonies): 11

Structure (SMILES): CC1=C2C[C@H]3[C@@H](CC[C@@H]4C[C@H](NS(C)(=O)=O)CC[C@@]43C)[C@@H]2CC[C@]12O[C@@H]1C[C@H](C)CN[C@H]1[C@H]2C [Compound 55]
- EC50 (Hedgehog pathway): < 20 nM
